Literature values as cited in patent US9173940B1, “Mixture of betamethasone and tranilast with a transdermal gel for scar treatment” (PROFESSIONAL COMPOUNDING CENTERS OF AMERICA (PCCA), priority 2014, dated 2015).

Details: taken orally

SMILES: COc1ccc(/C=C/C(=O)Nc2ccccc2C(=O)O)cc1OC [Tranilast]
- oral absorption: well-absorbed
